Reference: patent publication US7858585B2, “Hydrogels and uses thereof” (University of Delaware, priority 2005, dated 2010)

Columns and labels:
[1] = tested on: C3H10t1/2 mesenchymal stem cells; assay: Encapsulation of mesenchymal stem cells in hydrogel, LSCM imaging of cell distribution; assay type: cell-based
Description: For example, FIG. 29 contains a Laser Scanning Confocal Microscopy (LSCM) cross-sectional view of C3H10t1/2 cells encapsulated within a 0.5 wt % MAX1 hydrogel. In this micrograph, cells contained within the interior of the gel are visualized from the side of the gel (along the y-axis, depth of field is 920 μm); the top and bottom of the image is the top and bottom of the gel, respectively. Cells are encapsulated by first dissolving 1.0 wt % MAX1 in buffer at pH 7.4. To this solution, an equal volume (50 μL) of DMEM cell culture medium containing 250,000 cells is added. The salt within the DMEM electrostatically screens the lysine side chain charges resulting in peptide folding and consequent self-assembly. This simple one-to-one addition of solutions affords gels impregnated with cells. However, it is clear in FIG. 29 that the hydrogelation kinetics of MAX1 are not fast enough to entrap the cells homogeneously since a majority of the cells sediment to the bottom of the gel sample well.
C3H10t1/2 cell growth conditions are 90% DMEM supplemented with 25 mM HEPES, 10% FBS, 5 mM L-glutamine, and 50 μg/mL Gentamicin at 37° C., 5% CO2. […] Viability of encapsulated cells in 0.5 wt % hydrogels (before and after shear thinning) was assessed via a Live/Dead assay at 3 hr after encapsulation. […]

[2] = tested on: C3H10t1/2 cells; assay: Live/Dead assay of encapsulated cells after shear thin delivery; assay type: cell-based; conditions: 0.5 wt % hydrogel, three hours after delivery
Protocol: Lastly, the effect of shear thin delivery on cell viability was assessed by performing a Live-Dead assay on cells that had been encapsulated into a 0.5 wt % HPL8 hydrogel and subsequently shear thin delivered to a LSCM well FIG. 33c. In this micrograph, cells contained within the interior of the gel are visualized by viewing from the top of the gel (along the z-axis, depth of field is 90 μm.). Three hours after the gel/cell construct had been shear-thin delivered, calcien AM and ethidium homodimer were added to the top of the gel, which freely diffuse through the gel network, staining live cells green and dead cells red, respectively. […] In fact, the limited degree of cell death observed in FIG. 33c is nearly identical to that of the control experiment where cells were encapsulated in HPL8 hydrogel but not shear thin delivered (FIG. 35).
C3H10t1/2 cell growth conditions are 90% DMEM supplemented with 25 mM HEPES, 10% FBS, 5 mM L-glutamine, and 50 μg/mL Gentamicin at 37° C., 5% CO2. For confocal micrographs of hydrogels impregnated with pre-labeled cells, a suspension of 1.5 e6 cells/mL were incubated in a solution of 5 μM cell tracker green in DMEM for 45 min. […] Viability of encapsulated cells in 0.5 wt % hydrogels (before and after shear thinning) was assessed via a Live/Dead assay at 3 hr after encapsulation. […]

[3] = Oscillatory rheology of 0.5 wt % MAX1 and HPL8 hydrogels in DMEM, pH 7.4, 37° C.; assay type: physicochemical
Protocol: (§1) To a vial containing 1 mg of peptide, 100 μL of 25 mM HEPES, pH 7.4 was added resulting in a soluble 1 wt % peptide solution. To this solution, an equal volume of DMEM supplemented with 25 mM HEPES, pH 7.4 was added to initiate self-assembly, resulting in a 0.5 wt % hydrogel. All hydrogels were prepared by this method unless otherwise stated.
Oscillatory rheology experiments were performed on a TA Instruments rheometer (AR 2000) with a 25 mm diameter stainless steel parallel plate geometry with a gap height of 0.5 mm. All measurements were acquired at 37° C. For dynamic time sweeps (DTS) the hydrogels were prepared as stated above and quickly transferred to the rheometer where the storage modulus (G′) was monitored as a function of time, frequency=6 rad. sec-1 and strain=0.2%. For the shear thinning experiments, a DTS was preformed for 10 min at which time 1000% stain was applied for 30 seconds to shear thin the material. After which time, the strain was decreased to 0.2% and G′ monitored as a function of time. Dynamic frequency, dynamic strain and dynamic time sweep measurements measuring both G′ and the loss modulus (G″) are provided in FIG. 36.

[4] = CD kinetics of β-sheet formation ([θ]216) after addition of DMEM; assay type: physicochemical; conditions: 0.5 wt %, pH 7.4, 37° C.
Protocol: as §1
CD kinetic spectra were collected on a Jasco J-810 spectropolarimeter employing 0.1 mm quartz water-jacketed cell. Peptide samples were prepared as stated above, transferred to the cell at 37° C. The ellipiticity in millidegrees were monitored at 216 nm as a function of time. Following the kinetic measurement, a wavelength scan was recorded at 37° C. using a 2 nm step size. The concentrations of MAX1 and HPL8 stock solutions were determined by absorbance (λ220=15750 cm-1.M-1) after dilution with water. Mean residue ellipticity [θ]=(θobs/10.1.c)/r, where θobs is the measured ellipticity in millidegrees, l is the length of the cell (cm), c is the concentration (M) and r is the number of residues.

**Q.** For VKVKVKVKV^DPPTKVEVKVKV-NH2 [HPL8], which “distribution of cells encapsulated in gel” value ([1]; 0.5 wt % gel, 250K cells in DMEM, pH 7.4, 37° C.) is on record?
**A.** homogeneous distribution of cells

**Q.** What about the “distribution of cells after shear thinning via syringe” value ([1]; 0.5 wt % gel/cell construct formed in a syringe) of the same substance?
**A.** still retain the homogeneous cell distribution

**Q.** What about the “cell viability after shear thin delivery” value [2] of the same substance?
**A.** majority of the cells remain viable

**Q.** And the “G′ within the first 40 seconds” value ([3]; pH 7.4, 37° C.)?
**A.** > 100 Pa

**Q.** And the “G′ at five minutes” value ([3]; phase I initial gelation)?
**A.** 450 Pa

**Q.** And the “G′ within a minute” value ([3]; phase I initial gelation)?
**A.** > 100 Pa

**Q.** And the “time to completely fold and self-assemble affording gel” value [4]?
**A.** under a minute
